In patent US8551958B2, “Galactosylated pro-drugs of non-steroidal anti-inflammatories with improved pharmacokinetic characteristics and reduced toxicity of the starting drug” (Stewart Italia Srl, priority 2008, dated 2013):

Experiments:
[1] = Chemical stability of the pro-drug (phosphate buffer pH 7.4; HCl 0.1 N pH 1), HPLC; format: physicochemical; settings: in the dark; for pH 7.4 T½: phosphate buffer at pH 7.4, 37° C.; for pH 1 T½: solution of HCl 0.1 N (pH 1), 37° C.
Method: For the stability study, the solutions of pro-drug were prepared by dissolving an aliquot of Ketogal in a phosphate buffer at pH 7.4, or else in a solution of HCl 0.1 N (pH 1), as regards chemical stability, or else in a plasma specimen, for enzymatic stability. The solutions were kept in the dark, at a temperature of 37° C., for 24 hours. After each hour an aliquot of specimen was taken. In the case of plasma, said aliquot was previously extracted with acetonitrile (1:2), “vortexed” and centrifuged at 3000 r.p.m. for 10 min. The supernatant was taken and used for analysis at HPLC with diode detector. The half-lives for chemical stability and enzymatic stability were calculated by quantizing, in time, the percentage of pro-drug that remained in solution. For the chromatographic separations, a 1090L HPLC (Hewlett-Packard, Palo Alto, USA) was used, coupled to a diode detector HP 1040A. A Phenomenex Luna C18 (250×4.6 mm, 5 μm) column was used. The wavelength used was 313 nm. The mobile phase was constituted by acetonitrile and an aqueous solution of phosphoric acid […] (pH 3) in the ratio of 68:32. The flow was 1 mL/min, with an injection volume of 20 μl. All the reagents and the solvents used were of analytical degree. The distilled and deionized water was purified by means of a Milli Q system (Millipore). The retention times of the compounds were: ketorolac: 6.7 min; Ketogal: 3.8 min. As internal standard tolmetin was used (9.3 min). The straight line of calibration for quantification of the compounds was constructed using standard solutions with concentrations of between 0.1 and 100 μg/ml. The linearity was obtained with a coefficient of regression (R^2) of approximately 0.998.
For the study of the stability, the solutions of pro-drug were prepared by dissolving an aliquot of Flugal in a phosphate buffer at pH 7.4, as regards chemical stability, or else in a plasma specimen, for enzymatic stability. The solutions were kept in the dark, at a temperature of 37° C., for 24 hours. After each hour an aliquot of specimen was taken. In the case of the plasma said amount was previously extracted with acetonitrile (1:2), “vortexed”, and centrifuged at 3000 r.p.m. for 10 min. The supernatant was taken and used for analysis at HPLC with diode detector. The half-lives for the chemical stability and enzymatic stability were calculated by quantizing, in time, the percentage of pro-drug that remained in solution. A 1090L HPLC (Hewlett-Packard, Palo Alto, USA) coupled to a diode detector HP 1040A was used for the chromatographic separations. The column used was a Supelcosil LC-18, 250×4.6 mm, particle size […]. The volume injected was […] and the flow of 1 mL/min. The mobile phase was constituted by a mixture of aqueous CH3CN/H3PO4 1 mM (pH 3) [32:68]. For the quantitative determination reading was made at 250 nm. The retention times of the various compounds involved in the analysis were: for Flugal 6 min and for flurbiprofen 11 min. All the reagents and the solvents used were of analytical degree. The distilled and deionized water was purified by means of a Milli Q system (Millipore). The straight line of calibration for the quantification of the compounds was constructed using standard solutions with concentrations of between 0.1 and 100 μg/ml. Linearity was obtained with a coefficient of regression (R^2) of approximately 0.998. From the results of said analysis (illustrated in Table 3) it emerges that the pro-drug Flugal has a good chemical stability and a good susceptibility to enzymatic hydrolysis.
Chemical stability was assessed also at pH 1.0 in a solution of HCl 0.1N as described.
For the stability study, the solutions of pro-drug were prepared by dissolving an aliquot of Okigal in a phosphate buffer at pH 7.4, or else in a solution of HCl 0.1 N (pH 1), as regards chemical stability, or else in a plasma specimen, for enzymatic stability. The solutions were kept in the dark, at a temperature of 37° C., for 24 hours. […]

[2] = Enzymatic stability in plasma, HPLC; format: in vitro ADME; settings: plasma specimen, 37° C., in the dark; read-out: Plasma T½ (converted)
Method: For the stability study, the solutions of pro-drug were prepared by dissolving an aliquot of Ketogal in a phosphate buffer at pH 7.4, or else in a solution of HCl 0.1 N (pH 1), as regards chemical stability, or else in a plasma specimen, for enzymatic stability. The solutions were kept in the dark, at a temperature of 37° C., for 24 hours. After each hour an aliquot of specimen was taken. In the case of plasma, said aliquot was previously extracted with acetonitrile (1:2), “vortexed” and centrifuged at 3000 r.p.m. for 10 min. The supernatant was taken and used for analysis at HPLC with diode detector. The half-lives for chemical stability and enzymatic stability were calculated by quantizing, in time, the percentage of pro-drug that remained in solution. For the chromatographic separations, a 1090L HPLC (Hewlett-Packard, Palo Alto, USA) was used, coupled to a diode detector HP 1040A. A Phenomenex Luna C18 (250×4.6 mm, 5 μm) column was used. The wavelength used was 313 nm. The mobile phase was constituted by acetonitrile and an aqueous solution of phosphoric acid […] (pH 3) in the ratio of 68:32. The flow was 1 mL/min, with an injection volume of 20 μl. All the reagents and the solvents used were of analytical degree. The distilled and deionized water was purified by means of a Milli Q system (Millipore). […] The straight line of calibration for quantification of the compounds was constructed using standard solutions with concentrations of between 0.1 and 100 μg/ml. […]
For the study of the stability, the solutions of pro-drug were prepared by dissolving an aliquot of Flugal in a phosphate buffer at pH 7.4, as regards chemical stability, or else in a plasma specimen, for enzymatic stability. […] The half-lives for the chemical stability and enzymatic stability were calculated by quantizing, in time, the percentage of pro-drug that remained in solution. […] For the quantitative determination reading was made at 250 nm. […] The straight line of calibration for the quantification of the compounds was constructed using standard solutions with concentrations of between 0.1 and 100 μg/ml. […]

[3] = system: mouse carrageenan paw oedema; assay: Carrageenan oedema test; format: in vivo, mice; settings: for Carrageenan-induced oedema, first phase (0-6 h): pro-drug 16.3 mg/kg oral; for Oedema formation after parent drug: 10 mg/kg oral
Method: Anti-inflammatory activity was tested by means of the carrageenan oedema test. The mice were divided into groups of six. The initial volumes of the leg of all the animals were measured using a plethysmometer. The oedema is induced in the leg by means of sub-plantar injection of 50 μl of saline solution containing 1% of carrageenan. The volume of the leg was measured at different time intervals. Said experimental model consists of two phases: a first, acute, phase lasting 6 hours and a second, chronic, phase, up to 72 hours.
The anti-inflammatory activity of the physical mixture of ketorolac and galactose was evaluated with the carrageenan induced mice hind paw edema assay, as described for ketogal. […]
The carrageenan induced mice hind paw oedema assay described by D'Agostino et al. (2007) was used to evaluate the acute anti-inflammatory activity of the conjugate. Mice were divided into control and test groups of six animals each. Initial paw volumes of all animals were measured using a plethysmometer apparatus (Ugo Basile, Milan, Italy) before treatment. Paw oedema was induced by a subplantar injection of 50 μL of saline containing 1% λ-carrageenan into the right hind paw. […] free acid and ketogal were orally administrated 1 h before carrageenan challenge. Paw volume was measured at different time intervals by plethysmometer. The increase in paw volume was evaluated as the difference between the paw volume measured at each time point and the basal paw volume measured immediately before carrageenan injection.

[4] = system: mouse carrageenan paw oedema; assay: Carrageenan oedema test; format: in vivo, mice; settings: pro-drug 16.3 mg/kg oral, 1 h before carrageenan
mice = assay: Ulcerogenicity studies, flurbiprofen and flugal (NSAID-induced gastric damage in mice); format: in vivo; settings: oral, after 4 h; for gastric lesion score / n. of ulcers: flurbiprofen 10 mg/kg, flugal 16.6 mg/kg (table); for n. of ulcers: fasted mice
Method: NSAID-induced gastric damage in mice was evaluated following the procedure described by Chan et al. (1995). […] After 4 h of treatment, mice were euthanized and the stomach was excised along its greater curvature and rinsed with normal saline. The mucosa was then examined by means of a magnifying glass for the presence of irritation or frank hemorrhagic lesions (ulcers). Irritation was assigned a score of 1, and ulcerations were scored according to their length (a score of 5 for lesions with a length between 1 and 3 mm; a score of 10 for lesions greater than 3 mm). The sum of total scores was used for comparison.

male Swiss mice [5] = assay: Ulcerogenicity studies, ketorolac and Ketogal (gastric lesions); format: in vivo; settings: oral, ketorolac 10.0 mg/kg, Ketogal 16.3 mg/kg, after 4 hours
Method: The gastric lesions were evaluated in male Swiss mice. To the fasted animals (16-18 h) were administered, by oral route, ketorolac (10 mg/kg), Ketogal (16.3 mg/kg), or the vehicle. After 4 hours, the mice were sacrificed and the stomach removed, cut along the major curvature, washed with physiological solution, and the mucous was examined for evaluation of the presence of petechias and/or gastric lesions. A “score” of 1 was assigned to the petechias, and a “score” based on the diameter (a “score” of 5 for lesions of a diameter of less than 1 mm; a “score” of 10 for lesions with a diameter of more than 1 mm) was, instead, assigned to the lesions.

[6] = system: writhing induced by acetic acid; assay: Writhing test induced by acetic acid; format: in vivo, mice; settings: 60 min prior to acetic acid
Method: The analgesic activity was studied using the “writhing test” using acetic acid and using magnesium sulphate. To the mice there was administered by intraperitoneal route 1 mL of solution at 1% of acetic acid, and the number of writhing events was evaluated for 20 min, after 5 min from administration of the solution of acetic acid. Writhing is defined as a contraction of the abdominal muscles accompanied by elongation of the body and of the rear legs. Ketorolac and Ketogal were administered by oral route 60 min prior to administration of the solution of acetic acid. The analgesic effect is expressed in number of writhing events as compared to the control.

[7] = system: writhing induced by magnesium sulphate; assay: Writhing induced by magnesium sulphate (visceral pain); format: in vivo, mouse; settings: ketorolac 0.01 to 10 mg/kg, Ketogal in equimolar dose; 1 hour before magnesium sulphate 120 mg/kg
Method: In order to determine whether ketorolac and Ketogal are able to inhibit visceral pain, the effects of these compounds on “writhing” induced by magnesium sulphate were tested. Magnesium sulphate induces a reversible response when injected by intraperitoneal route in the mouse. The administration of 120 mg/kg of magnesium sulphate induces an average of 6±0.9 episodes of “writhing” in the mouse (n=6).

male Swiss mice [8] = assay: Chronic and sub-chronic experiments: liver, kidney and stomach examination; format: in vivo; settings: ketorolac 10 mg/Kg, ketogal 16.3 mg/Kg, oral
Method: (§1) Animals were sacrificed and then liver, stomach and kidney were collected in glass tubes and analysed histologically and biochemically.
Liver samples were fixed in 10% buffered formalin and embedded in paraffin, sliced, and stained with hematoxylin & eosin (H&E) for assessment of liver pathology. […] To confirm histological data, western blot analysis for TNF-alpha, IL-6 and malonyldialdehyde assay were then performed in liver lysates.

COX-1 = assay: Western blot, stomach, COX-1 protein expression; format: in vivo, mice; settings: ketorolac 10 mg/Kg, ketogal 16.3 mg/Kg, oral, 3, 5 and 7 days; versus control stomachs
Excerpt: as §1

PGE synthase = assay: Western blot, stomach, PGE synthase protein expression; format: in vivo, mice; settings: ketorolac 10 mg/Kg, ketogal 16.3 mg/Kg, oral, 3, 5 and 7 days
Excerpt: as §1

PPAR-gamma = assay: Western blot, stomach, PPAR-gamma protein expression; format: in vivo, mice; settings: ketorolac 10 mg/Kg, ketogal 16.3 mg/Kg, oral, 3, 5 and 7 days
Excerpt: as §1

pH 7.4 T½ [1] [hours]	pH 1 T½ [1] [hours]	half-life [2] [h]	Structure (SMILES)	Carrageenan-induced oedema, first phase (0-6 h) ([3]; 1 h before carrageenan)	Carrageenan-induced oedema, second phase (24-96 h) [4]	Oedema formation after parent drug ([3]; 1 h before carrageenan)	gastric lesion score (mice)	n. of ulcers (mice)	other results
>8	>8	4	CC(C(=O)OCC1O[C@H](O)C(O)C(O)[C@H]1O)c1cccc(C(=O)c2ccccc2)c1 (stereo partly drawn) [Okigal, Ketoprofen-D-galactos-6′-yl ester]	slightly modify carrageenan-induced oedema	significant anti-inflammatory effect	–	–	–	–
–	–	–	O=C[C@H](O)[C@@H](O)[C@@H](O)[C@H](O)CO [galactose, reference compound]	–	–	–	–	–	Anti-inflammatory activity of galactose alone ([3]; galactose 16.3 mg/kg oral, 1 h before carrageenan): no anti-inflammatory activity
–	–	–	CC(C(=O)O)c1cccc(C(=O)c2ccccc2)c1 (centres unmarked) [Ketoprofen, ketoprofen, reference compound]	–	–	significantly inhibited oedema formation until 48 h	–	–	–
>8	>8	1	CC(C(=O)OCC1O[C@H](O)C(O)[C@@H](O)[C@H]1O)c1ccc(-c2ccccc2)c(F)c1 (stereo partly drawn) [Flugal, flurbiprofen-D-galactos-6′-yl ester]	did not modify carrageenan-induced oedema	significant anti-inflammatory effect	–	0	1 ± 1	Ulcerogenic activity (in words) (mice; flugal 16.3 mg/kg): caused only irritation without ulceration
–	–	–	CC(C(=O)O)c1ccc(-c2ccccc2)c(F)c1 (centres unmarked) [flurbiprofen, reference compound]	–	–	significantly inhibited oedema formation until 48 h	2	3 ± 1.5	–
–	–	–	O=C(c1ccccc1)c1ccc2n1CC[C@@H]2C(=O)O [ketorolac, reference compound]	–	–	–	–	–	Degree of ulcerogenicity (male Swiss mice [5]; score 1 petechias, 5 or 10 lesions): 10; Number of ulcers (male Swiss mice [5]; fasted mice): 4 ± 0.4; Dosages with significant analgesic effect (p<0.01) ([6]; ketorolac by oral route): significant at the dosages of 1 and 10 mg/kg; Analgesic effect (number of writhing events compared to control) ([6]; oral, ketorolac 0.01-10 mg/kg, Ketogal 0.0163-16.3 mg/kg): dose-dependent analgesic effect; Inhibition of writhing induced by magnesium sulphate [7]: able to inhibit this response in a dose-dependent way; Formation of oedema, first phase, lowest dose ([3]; ketorolac 0.1 mg/kg oral, first phase): had no effect; Kidney histology (male Swiss mice [8]; after 3, 5 and 7 days): normal kidney histology; Stomach samples, ulcerogenicity (male Swiss mice [8]; for 3 days): high ulcerogenicity degree; Gastric COX-1 protein expression (COX-1): significantly inhibited; Gastric PGE synthase protein expression (PGE synthase): significantly reduced; Gastric PPAR-gamma protein expression (PPAR-gamma): significantly reduced
